In brackets after ≈: the same amount, converted by molar mass. Each block holds one molecule with its values, some of them ahead of it.
Tests used:
MHCC97H = assay: Antiproliferative activity against human MHCC97H cells assessed as reduction in cell viability incubated for 48 hrs by CCK-8 assay; format: functional, cell-based
HUVEC [1] = assay: Antiproliferative activity against HUVEC cells assessed as reduction in cell viability incubated for 48 hrs by CCK-8 assay; format: functional, cell-based; settings: Homo sapiens
HEK293 = assay: Cytotoxicity against HEK293 cells assessed as cell growth inhibition measured after 48 hrs by CCK-8 assay; format: functional, cell-based; settings: Homo sapiens, HEK293, 48 h
L02 = assay: Cytotoxicity against human L02 cells assessed as cell growth inhibition measured after 48 hrs by CCK-8 assay; format: functional, cell-based; settings: L02, 48 h
B16 = assay: Antiproliferative activity against mouse B16 cells assessed as reduction in cell viability incubated for 48 hrs by MTT assay; format: functional, cell-based; settings: B16, 48 h
HCT-116 [2] = assay: cells; settings: Homo sapiens, HCT-116, 48 h
MCF7 [3] = assay: cells; settings: Homo sapiens, MCF7, 48 h
[4] = Antiproliferative activity against human WI-38 cells assessed as reduction in cell growth measured after 24 hrs by MTT assay; format: toxicity, cell-based
[5] = Half life in rat at 5 mg/kg, iv; format: ADME, organism-based; settings: in vivo
[6] = Oral bioavailability in rat at 2.5 mg/kg; format: ADME, organism-based; settings: in vivo
Calu-6 = assay: Antitumor activity against human Calu-6 cells xenografted in athymic mouse assessed as inhibition of tumor growth at 100 mg/kg, po administered once daily for 21 days relative to control; format: functional; parameters: scale not given: the % may be the effect or the level left; settings: time 21 day
HUVEC [7] = assay: cells; settings: Homo sapiens
HUVEC [8] = assay: cells; settings: Homo sapiens; remark: listed apart in the source
in vitro = settings: human, HUVEC cells
HCT-116 [9] = assay: Antiproliferative activity against human HCT-116 cells assessed as cell growth inhibition measured after 48 hrs by MTT assay; format: functional, cell-based; settings: HCT-116, 48 h
MCF7 [10] = assay: Antiproliferative activity against human MCF7 cells assessed as cell growth inhibition measured after 48 hrs by MTT assay; format: functional, cell-based; settings: MCF7, 48 h
MCF7 [11] = assay: Antiproliferative activity against human MCF7 cells assessed as reduction in cell viability measured after 48 hrs by MTT assay; format: functional, cell-based; settings: MCF7, 48 h
HCT-116 [12] = assay: Antiproliferative activity against human HCT-116 cells assessed as reduction in cell viability measured after 48 hrs by MTT assay; format: functional, cell-based; settings: HCT-116, 48 h
HepG2 [13] = assay: Antiproliferative activity against human HepG2 cells assessed as reduction in cell growth incubated for 48 hrs by MTT based colorimetric analysis; format: functional; settings: HepG2, 48 h
[14] = biological target: T1, Vascular endothelial growth factor receptor 2 (Homo sapiens, UniProt P35968)
T1 sequence (P35968 whole entry): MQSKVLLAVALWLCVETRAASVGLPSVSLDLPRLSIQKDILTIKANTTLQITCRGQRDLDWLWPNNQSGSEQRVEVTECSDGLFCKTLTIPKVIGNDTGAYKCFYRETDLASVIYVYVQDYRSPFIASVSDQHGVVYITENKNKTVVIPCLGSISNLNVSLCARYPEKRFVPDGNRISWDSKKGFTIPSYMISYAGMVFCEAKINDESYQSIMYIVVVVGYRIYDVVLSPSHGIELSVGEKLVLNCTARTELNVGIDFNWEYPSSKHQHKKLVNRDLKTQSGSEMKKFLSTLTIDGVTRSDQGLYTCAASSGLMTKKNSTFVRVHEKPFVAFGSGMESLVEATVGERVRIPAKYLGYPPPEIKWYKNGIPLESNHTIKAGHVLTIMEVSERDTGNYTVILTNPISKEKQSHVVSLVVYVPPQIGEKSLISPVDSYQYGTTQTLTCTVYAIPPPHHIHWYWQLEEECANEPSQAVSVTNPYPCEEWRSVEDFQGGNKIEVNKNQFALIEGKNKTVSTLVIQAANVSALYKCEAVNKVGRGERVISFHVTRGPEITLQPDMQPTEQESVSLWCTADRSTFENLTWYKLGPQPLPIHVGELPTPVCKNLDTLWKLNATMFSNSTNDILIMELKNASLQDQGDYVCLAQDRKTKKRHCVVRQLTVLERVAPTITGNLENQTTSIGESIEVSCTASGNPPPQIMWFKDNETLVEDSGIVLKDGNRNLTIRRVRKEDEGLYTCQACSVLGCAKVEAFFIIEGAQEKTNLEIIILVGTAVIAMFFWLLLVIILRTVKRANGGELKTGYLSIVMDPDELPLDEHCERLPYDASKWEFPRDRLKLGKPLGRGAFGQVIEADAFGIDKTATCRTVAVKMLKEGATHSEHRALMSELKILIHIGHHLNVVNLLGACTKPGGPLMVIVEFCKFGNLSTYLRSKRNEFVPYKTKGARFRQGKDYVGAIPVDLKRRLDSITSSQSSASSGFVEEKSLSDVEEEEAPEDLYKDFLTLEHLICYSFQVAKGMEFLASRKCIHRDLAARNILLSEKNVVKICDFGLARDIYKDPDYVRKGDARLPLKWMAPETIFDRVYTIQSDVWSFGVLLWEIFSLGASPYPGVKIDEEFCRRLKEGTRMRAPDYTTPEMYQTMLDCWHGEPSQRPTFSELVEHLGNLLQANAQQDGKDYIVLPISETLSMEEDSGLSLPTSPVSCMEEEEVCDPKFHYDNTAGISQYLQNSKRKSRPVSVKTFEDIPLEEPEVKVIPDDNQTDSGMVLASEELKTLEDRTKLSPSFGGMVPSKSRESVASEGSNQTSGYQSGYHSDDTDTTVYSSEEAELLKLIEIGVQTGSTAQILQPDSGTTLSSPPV

MCF7 [15] = assay: Induction of cell cycle arrest in human MCF7 cells assessed as reduction in accumulation of cells in G2/M phase at 10 uM incubated for 24 hrs by PI staining based flow cytometry analysis relative to control; format: functional; parameters: scale not given: the % may be the effect or the level left
MCF7 [16] = assay: Cytotoxicity against human MCF7 cells assessed as reduction in cell growth incubated for 24 hrs by MTT assay; format: functional, cell-based; settings: MCF7, 24 h
[17] = biological target: T2, Epidermal growth factor receptor (Homo sapiens, UniProt P00533); assay: Inhibition of EGFR (unknown origin) using TK as substrate incubated for 60 mins by HTRF method
T2 sequence (P00533 whole entry): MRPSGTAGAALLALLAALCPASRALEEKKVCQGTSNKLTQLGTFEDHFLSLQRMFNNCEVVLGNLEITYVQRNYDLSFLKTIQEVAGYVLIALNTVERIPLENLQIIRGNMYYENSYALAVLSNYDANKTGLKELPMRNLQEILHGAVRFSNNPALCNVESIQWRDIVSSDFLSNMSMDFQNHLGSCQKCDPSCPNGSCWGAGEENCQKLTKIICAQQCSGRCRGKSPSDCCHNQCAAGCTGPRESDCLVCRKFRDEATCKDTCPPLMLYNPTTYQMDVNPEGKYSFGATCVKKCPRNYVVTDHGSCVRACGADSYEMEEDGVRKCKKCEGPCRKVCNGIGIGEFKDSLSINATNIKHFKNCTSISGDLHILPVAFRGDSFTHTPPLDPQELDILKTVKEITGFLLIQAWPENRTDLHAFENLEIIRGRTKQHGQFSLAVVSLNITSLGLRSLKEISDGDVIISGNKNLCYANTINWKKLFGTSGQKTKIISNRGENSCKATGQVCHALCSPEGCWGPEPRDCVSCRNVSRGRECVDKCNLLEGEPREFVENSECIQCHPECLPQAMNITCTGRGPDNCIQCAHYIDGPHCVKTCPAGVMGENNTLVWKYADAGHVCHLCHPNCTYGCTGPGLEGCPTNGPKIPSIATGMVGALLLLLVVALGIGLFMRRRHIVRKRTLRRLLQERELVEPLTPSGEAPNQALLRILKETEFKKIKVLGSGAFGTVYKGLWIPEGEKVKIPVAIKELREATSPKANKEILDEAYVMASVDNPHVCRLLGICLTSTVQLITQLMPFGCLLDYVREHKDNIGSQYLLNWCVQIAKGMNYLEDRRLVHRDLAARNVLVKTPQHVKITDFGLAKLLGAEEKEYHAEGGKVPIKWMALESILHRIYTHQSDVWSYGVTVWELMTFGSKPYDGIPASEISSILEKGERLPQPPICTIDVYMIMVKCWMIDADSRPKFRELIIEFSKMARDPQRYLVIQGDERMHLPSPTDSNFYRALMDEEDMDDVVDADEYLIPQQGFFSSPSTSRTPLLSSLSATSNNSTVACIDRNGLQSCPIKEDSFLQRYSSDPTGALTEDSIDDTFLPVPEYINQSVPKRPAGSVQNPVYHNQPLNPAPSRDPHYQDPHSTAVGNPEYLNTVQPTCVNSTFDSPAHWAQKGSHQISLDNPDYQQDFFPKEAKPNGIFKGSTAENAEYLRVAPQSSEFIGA

[18] = biological target: T1, Vascular endothelial growth factor receptor 2; assay: Inhibition of VEGFR-2 (unknown origin) by Kinase-Glo Max assay
[19] = biological target: Vascular endothelial growth factor receptor 1 (Homo sapiens, UniProt P17948); assay: Inhibition of VEGFR-1 (unknown origin)
Sequence of Vascular endothelial growth factor receptor 1 (P17948 whole entry): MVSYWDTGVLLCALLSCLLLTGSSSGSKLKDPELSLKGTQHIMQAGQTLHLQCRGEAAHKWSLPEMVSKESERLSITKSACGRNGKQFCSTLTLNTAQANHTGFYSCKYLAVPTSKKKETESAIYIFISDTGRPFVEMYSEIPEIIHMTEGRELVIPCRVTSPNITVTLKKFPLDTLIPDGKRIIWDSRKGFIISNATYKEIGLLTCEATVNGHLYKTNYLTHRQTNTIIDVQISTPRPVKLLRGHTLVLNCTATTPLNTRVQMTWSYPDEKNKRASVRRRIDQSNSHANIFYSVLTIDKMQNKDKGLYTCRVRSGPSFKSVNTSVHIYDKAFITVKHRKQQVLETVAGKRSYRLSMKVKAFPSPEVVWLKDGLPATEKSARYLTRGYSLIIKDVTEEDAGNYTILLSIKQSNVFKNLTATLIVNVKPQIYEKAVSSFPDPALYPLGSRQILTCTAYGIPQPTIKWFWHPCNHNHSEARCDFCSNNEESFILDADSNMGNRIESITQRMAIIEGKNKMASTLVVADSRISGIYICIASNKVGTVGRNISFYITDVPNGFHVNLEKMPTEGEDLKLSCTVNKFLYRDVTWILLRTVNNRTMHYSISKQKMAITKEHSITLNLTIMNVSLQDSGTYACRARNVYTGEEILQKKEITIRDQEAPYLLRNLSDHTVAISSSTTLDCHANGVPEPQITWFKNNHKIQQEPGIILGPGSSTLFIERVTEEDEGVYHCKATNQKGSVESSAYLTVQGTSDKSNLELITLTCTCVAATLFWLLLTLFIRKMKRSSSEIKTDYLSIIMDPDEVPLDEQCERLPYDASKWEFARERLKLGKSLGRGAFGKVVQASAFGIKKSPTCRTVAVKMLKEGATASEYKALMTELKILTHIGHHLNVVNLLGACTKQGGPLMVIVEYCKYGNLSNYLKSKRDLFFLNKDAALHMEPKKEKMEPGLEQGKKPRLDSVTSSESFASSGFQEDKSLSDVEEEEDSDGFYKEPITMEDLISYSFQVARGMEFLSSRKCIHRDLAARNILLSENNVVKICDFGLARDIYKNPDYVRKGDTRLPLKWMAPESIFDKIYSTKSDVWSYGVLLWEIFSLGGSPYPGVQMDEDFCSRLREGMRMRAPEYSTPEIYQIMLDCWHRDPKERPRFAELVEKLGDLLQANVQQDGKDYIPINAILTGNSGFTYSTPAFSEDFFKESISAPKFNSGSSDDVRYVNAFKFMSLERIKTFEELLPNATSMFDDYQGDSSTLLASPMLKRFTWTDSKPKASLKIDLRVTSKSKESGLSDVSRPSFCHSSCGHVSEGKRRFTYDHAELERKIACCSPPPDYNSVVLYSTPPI

[20] = biological target: Serine/threonine-protein kinase B-raf (Homo sapiens, UniProt P15056); assay: Inhibition of human recombinant B-Raf using […] as substrate incubated for 40 mins in presence of [gamma33P]ATP by scintillation counter based kinase assay
[21] = biological target: Serine/threonine-protein kinase B-raf (Homo sapiens, UniProt P15056, V600E); assay: Inhibition of B-RAF V600E mutant (unknown origin) using […] as substrate incubated for 40 mins in presence of [gamma33P]ATP by scintillation counter based kinase assay
[22] = biological target: RAF proto-oncogene serine/threonine-protein kinase (Homo sapiens, UniProt P04049); assay: Inhibition of human recombinant C-Raf using Glu-Tyr-Met-Pro-Met-Glu as substrate incubated for 60 mins by radiometric kinase assay
Sequence of RAF proto-oncogene serine/threonine-protein kinase (P04049 whole entry): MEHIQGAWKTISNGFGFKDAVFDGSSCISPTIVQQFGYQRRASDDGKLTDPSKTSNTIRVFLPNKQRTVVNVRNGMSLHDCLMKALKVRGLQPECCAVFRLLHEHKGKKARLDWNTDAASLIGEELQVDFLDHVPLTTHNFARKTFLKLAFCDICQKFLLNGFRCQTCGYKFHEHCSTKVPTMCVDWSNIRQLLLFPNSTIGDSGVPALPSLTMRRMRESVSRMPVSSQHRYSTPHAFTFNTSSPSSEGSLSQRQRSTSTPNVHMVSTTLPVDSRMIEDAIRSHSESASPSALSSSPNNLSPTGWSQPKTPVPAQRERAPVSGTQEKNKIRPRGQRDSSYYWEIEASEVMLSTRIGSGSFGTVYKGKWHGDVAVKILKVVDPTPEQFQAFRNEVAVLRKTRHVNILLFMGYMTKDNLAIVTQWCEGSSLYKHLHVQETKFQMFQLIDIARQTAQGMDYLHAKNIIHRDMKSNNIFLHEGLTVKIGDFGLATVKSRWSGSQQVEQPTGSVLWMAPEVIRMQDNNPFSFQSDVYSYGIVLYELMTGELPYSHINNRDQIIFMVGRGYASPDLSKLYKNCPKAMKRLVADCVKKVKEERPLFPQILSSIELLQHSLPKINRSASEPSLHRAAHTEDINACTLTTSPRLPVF

[23] = biological target: T2, Epidermal growth factor receptor; assay: Inhibition of human recombinant EGFR using poly(Glu-Tyr) as substrate at 4:1 ratio in presence of ATP incubated for 60 mins by ELISA analysis
[24] = biological target: T1, Vascular endothelial growth factor receptor 2; assay: Inhibition of VEGFR-2 (unknown origin) kinase activity using poly(Glu-Tyr) at 4:1 ratio as substrate in presence of ATP incubated for 60 mins by ELISA
[25] = biological target: Vascular endothelial growth factor receptor 3 (Homo sapiens, UniProt P35916); assay: Inhibition of VEGFR-3 (unknown origin)
HepG2 [26] = assay: Antiproliferative activity against human HepG2 cells assessed as reduction in cell growth measured after 24 hrs by MTT assay; format: functional, cell-based; settings: HepG2, 24 h
PC-3 = assay: Antiproliferative activity against human PC-3 cells assessed as reduction in cell growth measured after 24 hrs by MTT assay; format: functional, cell-based; settings: PC-3, 24 h
MCF7 [27] = assay: Antiproliferative activity against human MCF7 cells assessed as reduction in cell growth measured after 24 hrs by MTT assay; format: functional, cell-based; settings: MCF7, 24 h
[28] = biological target: T1, Vascular endothelial growth factor receptor 2; remark: listed apart in the source
HepG2 [29] = assay: Growth inhibition of human HepG2 cells incubated for 24 hrs by MTT assay; format: functional
HCT-116 [30] = assay: Growth inhibition of human HCT-116 cells incubated for 24 hrs by MTT assay; format: functional
MCF7 [31] = assay: Growth inhibition of human MCF7 cells incubated for 24 hrs by MTT assay; format: functional

SMILES: COc1cc2ncnc(Oc3ccc(NC(=O)C4(C(=O)Nc5ccc(F)cc5)CC4)cc3F)c2c2c1OCCO2
- IC50 (MHCC97H): 58.6 µg/mL (≈ 107 µM)
- IC50 (HUVEC [1]): 3.7 µg/mL (≈ 6.75 µM)
- IC50 (HEK293): 15.1 µg/mL (≈ 27.5 µM)
- IC50 (L02): 12.6 µg/mL (≈ 23 µM)

SMILES: COc1cc2nccc(Oc3ccc(NC(=O)C4(C(=O)Nc5ccc(F)cc5)CC4)cc3)c2cc1OC [CABOZANTINIB]
- IC50 (MHCC97H): 25 µg/mL (≈ 49.8 µM)
- IC50 (HUVEC [1]): 2.7 µg/mL (≈ 5.38 µM)

SMILES: CCn1c(SCC(=O)NNC(=O)c2ccccc2)nc2ccc([N+](=O)[O-])cc2c1=O
- IC50 at 24 h [4]: 146 µg/mL (≈ 341 µM)

SMILES: C/C(=N\NC(=O)c1ccccc1O)c1ccc(NC(=O)CSc2nc3ccccc3c(=O)n2-c2ccccc2)cc1
- IC50 (HCT-116 [9]): 5000 nM
- IC50 (MCF7 [10]): 6770 nM

SMILES: COc1cccc2c1C(=O)c1c(O)c3c(c(O)c1C2=O)C[C@@](O)(C(=O)CO)C[C@@H]3O[C@H]1C[C@H](N)[C@H](O)[C@H](C)O1 [DOXORUBICIN]
- IC50 (HepG2 [26]): 7.94 µg/mL (≈ 14.6 µM)
- IC50 (PC-3): 8.87 µg/mL (≈ 16.3 µM)
- IC50 (MCF7 [27]): 6.75 µg/mL (≈ 12.4 µM)

SMILES: O=C(Cn1c(=O)c2ccccc2n(Cc2ccccc2)c1=O)Nc1ccc(C(=O)N/N=C/c2ccc(Cl)cc2)cc1
- IC50 [28]: 120 nM
- GI50 (HepG2 [29]): 9160 nM
- GI50 (HCT-116 [30]): 5690 nM
- GI50 (MCF7 [31]): 5270 nM

Continued, in another order:

- IC50 (B16): 5570 nM
- IC50 (HCT-116 [2]): 8350 nM
- IC50 (MCF7 [3]): 15700 nM
SMILES: COc1cc2ncnc(Oc3cccc(NC(=S)Nc4ccc(Br)c(C(F)(F)F)c4)c3)c2cc1OC

- half-life [5]: 8.3 h
- bioavailability [6]: > 50%
- EC50 (in vitro): > 3000 nM
SMILES: COc1cc2/c(=N/c3ccc(Br)cc3F)nc[nH]c2cc1OCC1CCN(C)CC1 [VANDETANIB]
- Activity (Calu-6): 79%
- EC50 (HUVEC [7]): 60 nM
- EC50 (HUVEC [8]): 10 nM

- IC50 (MCF7 [11]): 9630 nM
- IC50 (HCT-116 [12]): 1580 nM
SMILES: O=C(CSc1nc2ccc(Cl)cc2c(=O)n1-c1ccccc1)N/N=C/c1cccc(F)c1

- IC50 (HepG2 [13]): 4330 nM
SMILES: CCNC(=S)NS(=O)(=O)c1ccc(NC(=O)CSc2nc3ccccc3c(=O)n2CC)cc1

- IC50 [14]: 640 nM
SMILES: NS(=O)(=O)c1ccc(-n2c(SCC(=O)N/N=C/c3ccc(Cl)cc3Cl)nc3cc4ccccc4cc3c2=O)cc1
- Activity (MCF7 [15]): 24.17%
- IC50 (MCF7 [16]): 100 nM

- IC50 [17]: 479 nM
SMILES: CC(C)c1ccc(Nc2ncnc3cc(NC(=O)Nc4ccccc4)ccc23)cc1

- IC50 [18]: 35 nM
SMILES: CNC(=O)c1c(C)oc2cc(Oc3ncnc4cc(OC)c(OC)cc34)ccc12 [FRUQUINTINIB]

- IC50 [14]: 87 nM
- IC50 [19]: 110 nM
SMILES: COc1cc2ncnc(Nc3ccsc3C(=O)Nc3ccc(F)c(Cl)c3)c2cc1OC

- IC50 [20]: 57 nM
- IC50 [21]: 51 nM
- IC50 [22]: 1000 nM
- IC50 [23]: 73 nM
- IC50 [24]: 7 nM
SMILES: NC(=O)CCn1cc(-c2ccc3ncnc(Nc4cc(O)c(F)cc4F)c3c2)nn1

- IC50 [14]: 160 nM
- IC50 [19]: 170 nM
- IC50 [25]: 125 nM
SMILES: CCCNC(=O)Nc1ccc(Nc2ncnc3cc(OC)c(OC)cc23)cc1Cl

From ChEMBL document CHEMBL5625175, “Quinazoline-based VEGFR-2 inhibitors as potential anti-angiogenic agents: A contemporary perspective of SAR and molecular docking studies” (Eur J Med Chem, 2023)
